Laboratory results from publication PMC10955247, “In vivo screening for toxicity-modulating drug interactions identifies antagonism that protects against ototoxicity in zebrafish” (Frontiers in Pharmacology, 2024).
Where a name gives a salt, the structure may show the parent alone.

Test system: zebrafish lateral line hair cells
Test: Standard assay: manual hair cell counting from individual neuromasts (confocal)
Type: in vivo, Danio rerio
Details: same representative experiment as PEPITA curve; read-out: EC50 (Standard Assay, normalized HC counts from individual neuromasts)
Procedure: To prepare the fish for confocal microscopy, fish were fixed in 2% paraformaldehyde for 1 hour at room temperature as described previously ([Philip et al., 2018]), before being transferred to fluoromount and mounted between two glass coverslips. To avoid crushing the fish, a dot of nail polish was placed on each corner of the coverslip so that the top coverslip sat slightly above the bottom coverslip where the fish was mounted. Fluorescent confocal microscopy was performed using a Leica Stellaris 8 microscope. Cranial lateral line neuromasts of each fish were imaged under an HC PL APO CS2 40x/1.30 oil objective with a 405 nm laser and 541/47 emission filter. Images were taken as z-stacks in 0.66 µm steps. Stacks were transformed into average intensity projections and prepared for visual analysis in ImageJ.
For hair cell survival quantification from individual neuromasts, trained observers counted surviving hair cells in confocal images of neuromasts of larvae that had been treated with various doses of neomycin. Two to eight neuromasts were scored per condition, and counts for each neuromast were averaged between two scorers. These counts were divided by previously characterized mean hair cell counts ([Harris et al., 2003]), matched by anatomical position, to yield a position-scaled measure of HCs present in each neuromast. […]

Compound: NC[C@@H]1O[C@H](O[C@H]2[C@@H](O)[C@H](O[C@@H]3[C@@H](O)[C@H](N)C[C@H](N)[C@H]3O[C@H]3O[C@H](CN)[C@@H](O)[C@H](O)[C@H]3N)O[C@@H]2CO)[C@H](N)[C@@H](O)[C@@H]1O [Neomycin, Neomycin sulfate hydrate]
- EC50: 2 µM
